System: NCI's 60 human tumor cell line assay
Assay: cells
Format: cell-based
Conditions: 60 cell, 48 h, read-out: IC50 (mean GI50 against NCI's 60 human tumor cell line assay)
Protocol: Each test compound was screened against a battery of 60 human cell lines obtained from eight organs. In a typical procedure, the cell suspensions that were diluted according to the particular cell type and the expected target cell density (5000-40,000 cells per well based on cell growth characteristics) were added into 96-well microtiter plates. Inoculates were allowed a preincubation period of 24h at 37°C. for stabilization. Dilutions at twice the intended test concentrations were added at time zero in 100-µl aliquots to microtiter plate wells. Usually test compounds were evaluated at five 10-fold dilutions. The highest well concentration used in the test is 10^-4M. The cells are then incubated in the presence of drug (the test compound) for further 48h in 5% CO2 atmosphere and 100% humidity. At the end of this time, the adherent cells are fixed to the plate by means of trichloroacetic acid, and after a number of washes, the cell layer is treated with the protein stain Sulforhodamine B. The optical density which is proportional to protein mass, is then read by automated spectrophotometric plate readers at a wavelength of 515 nm. Readings are transferred to a microcomputer and final reports are generated using especially developed software.

Going from CCc1c2c(nc3ccccc13)-c1cc3c(c(=O)n1C2OCCN1CCCCC1)COC(=O)[C@]3(O)CC (stereo partly drawn) [7-Ethyl-5-piperidinoethoxy camptothecin] to CCc1c2c(nc3ccccc13)-c1cc3c(c(=O)n1C2OCCF)COC(=O)[C@]3(O)CC (stereo partly drawn) [Example 31, 5-(2'-Fluoroethoxy)-7-ethylcamptothecin], the mean GI50 falls from greater than 30 µM to 4.36 µM.

First: CCc1c2c(nc3ccccc13)-c1cc3c(c(=O)n1C2OCC(F)(F)F)COC(=O)[C@]3(O)CC (stereo partly drawn) [7-Ethyl-5-trifluoroethoxycamptothecin]
Second: CCOC1c2c(nc3ccccc3c2CC)-c2cc3c(c(=O)n21)COC(=O)[C@]3(O)CC (stereo partly drawn) [Example 3, 5-Ethoxy-7-ethylcamptothecin]
The mean GI50 of the first is 5.3-fold higher: 7.41 µM for the first, 1.41 µM for the second.

Compared with CC[C@@]1(O)C(=O)OCc2c1cc1n(c2=O)C(OCCOC)c2cc3c([N+](=O)[O-])cccc3nc2-1 (stereo partly drawn) [9-Nitro-5-methoxyethoxy camptothecin], CCOC1c2cc3cccc([N+](=O)[O-])c3nc2-c2cc3c(c(=O)n21)COC(=O)[C@]3(O)CC (stereo partly drawn) [Example 16, 12-Nitro-5-ethoxycamptothecin] is higher in mean GI50: 2.04 µM for the first, greater than 30 µM for the second.

CC[C@@]1(O)C(=O)OCc2c1cc1n(c2=O)C(OC)c2cc3ccccc3nc2-1 (stereo partly drawn) [Example 1, 5-methoxycamptothecin] and CCOC1c2cc3ccccc3nc2-c2cc3c(c(=O)n21)COC(=O)[C@]3(O)CC (stereo partly drawn) [Example 9, 5-Ethoxycamptothecin] are within 1.5-fold of each other in mean GI50: 8.5 µM for the first, 9.54 µM for the second.

First: CCOC1c2cc3c(OC)cccc3nc2-c2cc3c(c(=O)n21)COC(=O)[C@]3(O)CC (stereo partly drawn) [Example 5, 5-Ethoxy-9-methoxycamptothecin]
Second: CC[C@@]1(O)C(=O)OCc2c1cc1n(c2=O)C(OC)c2cc3c(N)cccc3nc2-1 (stereo partly drawn) [Example 20, 9-amino-5-methoxycamptothecin]
The mean GI50 of the first is 2.8-fold lower: 2.45 µM for the first, 6.76 µM for the second.

CCOC1c2c(nc3cccc(OC)c3c2CC)-c2cc3c(c(=O)n21)COC(=O)[C@]3(O)CC (stereo partly drawn) [Example 7, 5-Ethoxy-9-methoxy-7-ethylcamptothecin] and CCc1c2c(nc3ccccc13)-c1cc3c(c(=O)n1C2OCCCl)COC(=O)[C@]3(O)CC (stereo partly drawn) [Example 40, 5-(2'-chloroethoxy)-7-ethylcamptothecin] are within 1.5-fold of each other in mean GI50: 2.13 µM for the first, 2.75 µM for the second.

CCCCOC1c2cc3ccccc3nc2-c2cc3c(c(=O)n21)COC(=O)[C@]3(O)CC (stereo partly drawn) [Example 10, 5-butoxycamptothecin] and CC[C@@]1(O)C(=O)OCc2c1cc1n(c2=O)C(OCCCl)c2cc3ccccc3nc2-1 (stereo partly drawn) [Example 24, 5-(2'-Chloroethoxy)camptothecin] are within 1.5-fold of each other in mean GI50: 6.16 µM for the first, 4.57 µM for the second.

Compared with CC[C@@]1(O)C(=O)OCc2c1cc1n(c2=O)C(O)c2cc3cccc([N+](=O)[O-])c3nc2-1 (stereo partly drawn) [Example 23, 12-Nitro-5-hydroxy camptothecin], CC[C@@]1(O)C(=O)OCc2c1cc1n(c2=O)C(OCCO)c2cc3cc(O)ccc3nc2-1 (stereo partly drawn) [Example 33, 5-(2'-Hydroxyethoxy)-10-hydroxycamptothecin] is lower in mean GI50: greater than 30 µM for the first, 8.12 µM for the second.

Going from CC[C@@]1(O)C(=O)OCc2c1cc1n(c2=O)C(OCCF)c2cc3ccccc3nc2-1 (stereo partly drawn) [Example 29, 5-(2'-fluoroethoxy)camptothecin] to CC[C@@]1(O)C(=O)OCc2c1cc1n(c2=O)C(OCCN)c2cc3ccccc3nc2-1 (stereo partly drawn) [Example 36, 5-(2'-aminoethoxy) camptothecin], the mean GI50 rises from 1.58 µM to 30 µM (19-fold).

Going from CCc1c2c(nc3ccccc13)-c1cc3c(c(=O)n1C2OCCCN(C)C)COC(=O)[C@]3(O)CC (stereo partly drawn) [Example 38, 5-(3'-dimethylaminopropoxy)-7-ethylcamptothecin] to CCc1c2c(nc3ccccc13)-c1cc3c(c(=O)n1C2OCCN(C)C)COC(=O)[C@]3(O)CC (stereo partly drawn) [Example 41, 5-(2'-dimethylaminoethoxy)-7-ethylcamptothecin], the mean GI50 falls from greater than 30 µM to 13.8 µM.

System: not listed separately
Assay: Lactone stability in whole blood (HPLC)
Format: in vitro ADME
Conditions: 100 μM, 37°C, lactone peak area relative to zero time (100%); 180 min
Protocol: 2. Lactone Stability in whole blood:
2 ml of blood from a healthy volunteer was collected in a tube containing 40 µl of heparin (572 IU) to prevent coagulation, 4 mM and 40 µM working solutions of the drug in DMSO were prepared and added to aliquots of whole blood to give final concentration of 100 µM and 1 µM respectively. The drug is incubated in whole blood at 37°C and 20 µl samples are collected into 180 µl of chilled methanol (-30°C) at different time intervals (0, 1, 2 & 3 hrs). Vortex and then centrifuge at 11000 rpm for 3 min in a microcentrifuge at room temperature. Dilute 100 µl of the supernatant with water to 300-500 µl depending upon the signal response (UV for 100 µM concentration and fluoroscence for 1 µM concentration) of the compound. 200 µl of the diluted sample is injected on to the HPLC column previously equilibrated with the mobile phase. The area under peak corrsponding to lactone forms is measured. Zero time peak area is taken as 100%, and the proportion of lactone peak area at different time points is calculated to determine the equilibrium lactone stability as obtained by consistent lactone proportion over two successive time points. (Biochemistry, 1994; 33:10325-10336 and J. Pharm. Sci., 1995; 84:518-519).

In order of rising “Lactone Stability in Whole Blood (after 3 hours)” value:
1. CC[C@@]1(O)C(=O)OCc2c1cc1n(c2=O)C(OCC(F)(F)F)c2cc3cc(O)ccc3nc2-1 (single isomer, unassigned) [Example 27 Diastereomer A, 10-Hydroxy-5-trifluoroethoxycamptothecin]  4.58±1.72
2. CCOC1c2cc3c(O)cccc3nc2-c2cc3c(c(=O)n21)COC(=O)[C@]3(O)CC (single isomer, unassigned) [Example 11 Diastereomer B, 5-Ethoxy-9-hydroxycamptothecin]  6.15±2.53
3. CC[C@@]1(O)C(=O)OCc2c1cc1n(c2=O)C(OCC(F)(F)F)c2cc3cc(O)ccc3nc2-1 (single isomer, unassigned) [Example 27 Diastereomer B, 10-Hydroxy-5-trifluoroethoxycamptothecin]  11.9±2.91

Same assay, conditions: human, whole blood, 100 μM, 37°C, lactone peak area relative to zero time (100%); read-out: Lactone Stability in Whole Blood (after 3 hours)

Work on CCOC1c2cc3c(O)cccc3nc2-c2cc3c(c(=O)n21)COC(=O)[C@]3(O)CC (single isomer, unassigned) [Example 11 Diastereomer A, 5-Ethoxy-9-hydroxycamptothecin] yielded a remaining at 3 h, 100 µM of 3.73 ± 1.5%.
